Data on one molecule can be found in patent US4309559A, “Sulphonamides useful as pesticides” (FBC Limited, priority 1977, dated 1982).

Assay type in all cases: in vivo
One test relates to Barley (Hordeum vulgare). Briefly: Pre-emergence soil surface spray, barley. Conditions: soil surface spray 2.8 kg/ha, 21 days, 0=no effect, 100=complete kill. A digest of the protocol:
(§1)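 Compounds are applied to the compost surface right after sowing, at 2.8 kg active ingredient per hectare. After 21 days in a controlled environment room at 22° C., any difference from untreated plants is rated visually from 0 (no effect) to 100 (complete kill).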

The subject of test [1] is Ryegrass (Lolium perenne). The experiment in a line: Post-emergence foliar spray, herbicidal/growth regulant response, ryegrass. Particulars: 168 h, foliar spray 11.2 kg/ha, 7 days, 0=no effect, 100=complete kill, read-out: herbicidal or growth regulant response index. The gist of the method:
(§2)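 Seedlings grown in potting compost at 22 °C, 14 h light, sprayed 14 days after sowing with compound in 1:1 aqueous acetone at 11.2 kg/ha in 450 l/ha. Visual scoring of herbicidal or growth-regulant response after 7 days versus untreated control, 0 = no effect to 100 = complete kill.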

Test [2] relates to Wheat (Triticum aestivum). The experiment in a line: Pre-emergence soil surface spray, wheat. Particulars: soil surface spray 2.8 kg/ha, 21 days, 0=no effect, 100=complete kill. A digest of the protocol:
as §1

The test system of test [3] is Mustard (Sinapis alba). The experiment in a line: Soil incorporation (attaclay/sand dust), growth regulatory or herbicidal effects, mustard. Particulars: 504 h, soil incorporation 26 ppm, 21 days, 0=no effect, 100=complete kill, read-out: growth regulatory or herbicidal effect score. A digest of the protocol:
(§3)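 Dust-formulated compound incorporated in potting compost, 26 or 130 ppm w/v; seeds sown, watered, 21 d at 22° C, 65-85% RH, 14 h/day 13,000 lux. Visual growth-regulatory/herbicidal score 0 (no effect) to 100 (complete kill) vs untreated.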

Test [4] has as its system Sugarbeet (Beta vulgaris). The experiment in a line: Post-emergence foliar spray, herbicidal/growth regulant response, sugarbeet. Conditions: 168 h, foliar spray 11.2 kg/ha, 7 days, 0=no effect, 100=complete kill, read-out: herbicidal or growth regulant response index. The gist of the method: as §2
A further test deals with Peas (Pisum sativum). Briefly: Soil incorporation (attaclay/sand dust), growth regulatory or herbicidal effects, peas. Particulars: Lathyrus oleraceus, 504 h, soil incorporation 26 ppm, 21 days, 0=no effect, 100=complete kill, read-out: growth regulatory or herbicidal effect score. A digest of the protocol:
as §3

Test [5] relates to Mustard (Sinapis alba). The experiment in a line: Post-emergence foliar spray, herbicidal/growth regulant response, mustard. Particulars: 168 h, foliar spray 11.2 kg/ha, 7 days, 0=no effect, 100=complete kill, read-out: herbicidal or growth regulant response index. The gist of the method: as §2
The test system of another test is Wild Oat (Avena fatua). Briefly: Pre-emergence soil surface spray, wild oat. Conditions: soil surface spray 2.8 kg/ha, 21 days, 0=no effect, 100=complete kill. The gist of the method:
as §1

Test [6] relates to Linseed (Linum usitatissimum). The experiment in a line: Soil incorporation (attaclay/sand dust), growth regulatory or herbicidal effects, linseed. Particulars: 504 h, soil incorporation 26 ppm, 21 days, 0=no effect, 100=complete kill, read-out: growth regulatory or herbicidal effect score. A digest of the protocol:
as §3

The next test concerns Oats (Avena sativa). Briefly: Soil incorporation (attaclay/sand dust), growth regulatory or herbicidal effects, oats. Particulars: 504 h, soil incorporation 26 ppm, 21 days, 0=no effect, 100=complete kill, read-out: growth regulatory or herbicidal effect score. A digest of the protocol:
as §3

A further test deals with Oat (Avena sativa). The experiment in a line: Post-emergence foliar spray, herbicidal/growth regulant response, oat. Conditions: 168 h, foliar spray 11.2 kg/ha, 7 days, 0=no effect, 100=complete kill, read-out: herbicidal or growth regulant response index. The gist of the method:
as §2

Test [7] has as its system Linseed (Linum usitatissimum). Briefly: Post-emergence foliar spray, herbicidal/growth regulant response, linseed. Conditions: 168 h, foliar spray 11.2 kg/ha, 7 days, 0=no effect, 100=complete kill, read-out: herbicidal or growth regulant response index. The gist of the method: as §2
Test [8] relates to Barnyardgrass (Echinochloa crus-galli). The experiment in a line: Pre-emergence soil surface spray, barnyardgrass. Conditions: soil surface spray 2.8 kg/ha, 21 days, 0=no effect, 100=complete kill. A digest of the protocol:
as §1

Test [9] deals with French beans (Phaseolus vulgaris). The experiment in a line: Post-emergence foliar spray, herbicidal/growth regulant response, French beans. Particulars: foliar spray 11.2 kg/ha, 7 days, 0=no effect, 100=complete kill. The gist of the method: as §2
Test [10] deals with Crabgrass (Digitaria sanguinalis). The experiment in a line: Pre-emergence soil surface spray, crabgrass. Particulars: soil surface spray 2.8 kg/ha, 21 days, 0=no effect, 100=complete kill. The gist of the method:
as §1

Consider `CCCS(=O)(=O)N(c1c(C)cccc1C)C(C)C(=O)OCC` (stereo not drawn) [Example 24, N-(1-[ethoxycarbonyl]ethyl)-2',6'-dimethyl-1-propanesulphonanilide], for which the “growth regulatory or herbicidal effect score” value is 30 in the test with Barley (Hordeum vulgare); 10 in [2]; 100 in the test with Wild Oat (Avena fatua); 80 in test [8]; 100 in test [10]. In addition, the pest or weed control at 11200 g/ha in test [1] is 75%; in the test with Mustard (Sinapis alba) [5], 100%; in test [7] it was 90%. Besides, the pest or weed control at 26 µg/mL amounted to 100% in the test with Mustard (Sinapis alba) [3], 0% in the test with Peas (Pisum sativum) and 100% in [6]. Further, the plant injury at 11200 g/ha in test [4] stood at 90%; in the test with Oat (Avena sativa), 30%. Moreover, the plant injury at 26 µg/mL with Oats (Avena sativa) came to 60%. The “herbicidal or growth regulant response index” value in test [9] is recorded as 100.
